Where two headings read alike, the source gives them in different places.
Assays:
[1] = system: WI38; test: MTT assay, cytotoxicity on normal lung fibroblast WI38; type: cell-based, human; settings: read-out: IC50 WI38
[2] = system: Caco-2; test: MTT assay, antiproliferative activity on colorectal cancer Caco-2; type: cell-based, human; settings: for cytotoxicity level in words, Caco-2: text grading; for SI (CaCo-2): selectivity index WI38 vs CaCo-2
[3] = system: A549; test: MTT assay, antiproliferative activity on lung cancer A549; type: cell-based, human; settings: for cytotoxicity level in words, A549: text grading
[4] = system: A549; settings: read-out: IC50 A549; reference drug; cited from earlier work
[5] = Homo sapiens, Caco-2, read-out: IC50 CaCo-2
[6] = Homo sapiens, A549, read-out: IC50 A549

Compound	IC50 [2, 5]	IC50 [3, 6]	IC50 ([2]; read-out: IC50 CaCo-2, MTT, colorectal cancer Caco-2)	IC50 ([3]; read-out: IC50 A549, MTT, lung cancer A549)	IC50 ([1]; Homo sapiens, WI-38, 72 h)	cytotoxicity level in words, Caco-2 ([2]; MTT)	SI (CaCo-2) [2]	cytotoxicity level in words, A549 ([3]; MTT)	IC50 ([1]; MTT, normal lung fibroblast WI38, 72 h)	IC50 [4]
Cc1c(O)ncc(COP(=O)([O-])O)c1C=NNC(=O)Cn1cc(COc2ccccc2-c2nc(-c3ccccc3)no2)nn1.[Na+] [Compound 10a, Sodium-(6-hydroxy-5-methyl-4-((2-(2-(4-((2-(3-phenyl-1,2,4-oxadiazol-5-yl)phenoxy)methyl)-1H-1,2,3-triazol-1-yl)acetyl)hydrazonol)methyl)pyridin-3-yl)methyl hydrogen phosphate]	–	–	26.7 µM	29.5 µM	–	moderate	0.34	moderate	9.02 µM	–
O=C(Cn1cc(COc2ccccc2-c2nc(-c3ccccc3)no2)nn1)NN=Cc1ccccc1O [Compound 9a, N′-(2-Hydroxybenzylidene)-2-(4-((2-(3-phenyl-1,2,4-oxadiazol-5-yl)phenoxy)methyl)-1H-1,2,3-triazol-1-yl)acetohydrazide]	3.37 µM	6.52 µM	–	–	6.1 µM	–	1.81	–	–	–
O=C(Cn1cc(COc2ccccc2-c2nc(-c3ccccc3)no2)nn1)NNC(=S)Nc1ccccc1 [Compound 11a, N-Phenyl-2-(2-(4-((2-(3-phenyl-1,2,4-oxadiazol-5-yl)phenoxy)methyl)-1H-1,2,3-triazol-1-yl)acetyl)hydrazine-1-carbothioamide]	32.2 µM	12.4 µM	–	–	21.6 µM	moderate	0.67	–	–	–
COc1cc([C@@H]2c3cc4c(cc3[C@@H](O[C@@H]3O[C@@H]5CO[C@@H](C)O[C@H]5[C@H](O)[C@H]3O)[C@H]3COC(=O)[C@H]23)OCO4)cc(OC)c1O [etoposide]	–	–	–	–	–	–	–	–	–	3.08 µM
COc1cccc2c1C(=O)c1c(O)c3c(c(O)c1C2=O)C[C@@](O)(C(=O)CO)C[C@@H]3O[C@H]1C[C@H](N)[C@H](O)[C@H](C)O1 [Doxorubicin, reference compound]	1.3 µM	1 µM	–	–	4.32 µM	–	3.32	–	–	–
O=C(Cn1cc(COc2ccccc2-c2nc(Cc3ccccc3)no2)nn1)NNC(=S)Nc1ccccc1 [Compound 11b, 2-(2-(4-((2-(3-Benzyl-1,2,4-oxadiazol-5-yl)phenoxy)methyl)-1H-1,2,3-triazol-1-yl)acetyl)-N-phenylhydrazine-1-carbothioamide]	16.4 µM	10.3 µM	–	–	34 µM	–	2.08	–	–	–
Cc1c(O)ncc(COP(=O)([O-])O)c1C=NNC(=O)Cn1cc(COc2ccccc2-c2nc(Cc3ccccc3)no2)nn1.[Na+] [Compound 10b, Sodium-(4-((2-(2-(4-((2-(3-benzyl-1,2,4-oxadiazol-5-yl)phenoxy)methyl)-1H-1,2,3-triazol-1-yl)acetyl)hydrazineylidene)methyl)-6-hydroxy-5-methylpyridin-3-yl)methyl hydrogen phosphate]	44.5 µM	37.3 µM	–	–	32.8 µM	moderate	0.74	moderate	–	–

The next lines start with results.

IC50 [2, 5]	IC50 [3, 6]	IC50 ([2]; read-out: IC50 CaCo-2, MTT, colorectal cancer Caco-2)	IC50 ([3]; read-out: IC50 A549, MTT, lung cancer A549)	Compound	IC50 ([1]; Homo sapiens, WI-38, 72 h)	cytotoxicity level in words, Caco-2 ([2]; MTT)	SI (CaCo-2) [2]	cytotoxicity level in words, A549 ([3]; MTT)	IC50 ([1]; MTT, normal lung fibroblast WI38, 72 h)	IC50 [4]
98.1 µM	210 µM	–	–	O=C(O)Cn1cc(COc2ccccc2-c2nc(-c3ccccc3)no2)nn1 [Compound 7a, 2-(4-((2-(3-Phenyl-1,2,4-oxadiazol-5-yl)phenoxy)methyl)-1H-1,2,3-triazol-1-yl)acetic acid]	22.4 µM	weak to inactive	0.23	weak to inactive	–	–
47.7 µM	10.5 µM	–	–	CCOC(=O)Cn1cc(COc2ccccc2-c2nc(Cc3ccccc3)no2)nn1 [Compound 5b, Ethyl 2-(4-((2-(3-benzyl-1,2,4-oxadiazol-5-yl)phenoxy)methyl)-1H-1,2,3-triazol-1-yl)acetate]	19.5 µM	moderate	0.41	–	–	–
12.9 µM	13.1 µM	–	–	NNC(=O)Cn1cc(COc2ccccc2-c2nc(-c3ccccc3)no2)nn1 [Compound 8a, 2-(4-((2-(3-Phenyl-1,2,4-oxadiazol-5-yl)phenoxy)methyl)-1H-1,2,3-triazol-1-yl)acetohydrazide]	30.6 µM	–	2.38	–	–	–
4.44 µM	4.27 µM	–	–	NNC(=O)Cn1cc(COc2ccccc2-c2nc(Cc3ccccc3)no2)nn1 [Compound 8b, 2-(4-((2-(3-Benzyl-1,2,4-oxadiazol-5-yl)phenoxy)methyl)-1H-1,2,3-triazol-1-yl)acetohydrazide]	3.6 µM	–	0.81	–	–	–
173 µM	86 µM	–	–	O=C(O)Cn1cc(COc2ccccc2-c2nc(Cc3ccccc3)no2)nn1 [Compound 7b, 2-(4-((2-(3-Benzyl-1,2,4-oxadiazol-5-yl)phenoxy)methyl)-1H-1,2,3-triazol-1-yl)acetic acid]	83.8 µM	weak to inactive	0.48	weak to inactive	–	–
11.5 µM	3.56 µM	–	–	NC(=O)Cn1cc(COc2ccccc2-c2nc(Cc3ccccc3)no2)nn1 [Compound 6b, 2-(4-((2-(3-Benzyl-1,2,4-oxadiazol-5-yl)phenoxy)methyl)-1H-1,2,3-triazol-1-yl)acetamide]	15.9 µM	–	1.38	–	–	–
26.3 µM	7.4 µM	–	–	CCOC(=O)Cn1cc(COc2ccccc2-c2nc(-c3ccccc3)no2)nn1 [Compound 5a, Ethyl 2-(4-((2-(3-phenyl-1,2,4-oxadiazol-5-yl)phenoxy)methyl)-1H-1,2,3-triazol-1-yl)acetate]	14.3 µM	moderate	0.54	–	–	–
2.89 µM	2.51 µM	–	–	O=C(Cn1cc(COc2ccccc2-c2nc(Cc3ccccc3)no2)nn1)NN=Cc1ccccc1O [Compound 9b, 2-(4-((2-(3-Benzyl-1,2,4-oxadiazol-5-yl)phenoxy)methyl)-1H-1,2,3-triazol-1-yl)-N'-(2-hydroxybenzylidene)acetohydrazide]	2.12 µM	–	0.73	–	–	–
14.1 µM	12.7 µM	–	–	NC(=O)Cn1cc(COc2ccccc2-c2nc(-c3ccccc3)no2)nn1 [Compound 6a, 2-(4-((2-(3-Phenyl-1,2,4-oxadiazol-5-yl)phenoxy)methyl)-1H-1,2,3-triazol-1-yl)acetamide]	29.8 µM	–	2.11	–	–	–
